The results in this text go back to patent US10106556B2, “Heterocyclic compound” (TAKEDA PHARMACEUTICAL COMPANY LIMITED, priority 2015, dated 2018).

What is called inhibition is the relative decrease from the control value, in per cent.

The target of the assay is T1, His-hMAGL (recombinant polyhistidine tagged human MAGL protein) (Homo sapiens, UniProt Q99685).
T1 construct: made in house; host or cells: E. coli BL21(DE3)
T1 sequence (Q99685 1-303): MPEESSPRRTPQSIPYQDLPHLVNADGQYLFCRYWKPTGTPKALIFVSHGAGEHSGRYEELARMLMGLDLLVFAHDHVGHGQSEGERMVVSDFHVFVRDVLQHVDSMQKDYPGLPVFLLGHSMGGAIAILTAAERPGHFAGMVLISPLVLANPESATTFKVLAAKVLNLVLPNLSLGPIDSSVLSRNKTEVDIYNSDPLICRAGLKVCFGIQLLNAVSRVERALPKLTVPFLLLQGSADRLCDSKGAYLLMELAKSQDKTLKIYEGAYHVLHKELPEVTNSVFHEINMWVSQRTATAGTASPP
As to the kind of experiment: Measurement of MAGL inhibitory activity (arachidonic acid production from 2-arachidonylglycerol, RapidFire-mass spectrometry). It is filed as biochemical. The conditions noted are these: MAGL inhibitory rate at 10 μM test compound; 60 min preincubation with His-hMAGL, 2-arachidonylglycerol substrate, 10 min reaction at room temperature. A digest of the protocol:
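Recombinant His-tagged human MAGL converted 2-arachidonylglycerol to arachidonic acid. Reactions received acetonitrile with 3 μM arachidonic acid-d8 as internal standard, and product was quantified by RapidFire SPE (C4) with negative-mode SRM mass spectrometry. Percent inhibition was calculated against compound-free and enzyme-free controls.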
With `Cc1ccc(OCC2CN(C(=O)c3cc4c(cc3F)OCC(=O)N4)C2)c(Cl)c1` [Example 117, 6-((3-((2-chloro-4-methylphenoxy)methyl)azetidin-1-yl)carbonyl)-7-fluoro-2H-1,4-benzoxazin-3(4H)-one], the inhibition at 10 µM was determined as 102%.

`CC(C)(C)c1ccc(OCC2CN(C(=O)c3cc4c(cc3F)OCC(=O)N4)C2)c(Cl)c1` [Example 118, 6-((3-((4-tert-butyl-2-chlorophenoxy)methyl)azetidin-1-yl)carbonyl)-7-fluoro-2H-1,4-benzoxazin-3(4H)-one]: the inhibition at 10 µM came to 99%.

Regarding `N#Cc1cc(Cl)ccc1OCC1CN(C(=O)c2cc3c(cc2F)OCC(=O)N3)C1` [Example 119, 5-chloro-2-((1-((7-fluoro-3-oxo-3,4-dihydro-2H-1,4-benzoxazin-6-yl)carbonyl)azetidin-3-yl)methoxy)benzonitrile], the inhibition at 10 µM was determined as 102%.

Regarding `Cc1cc(F)ccc1OCC1CN(C(=O)c2cc3c(cc2F)OCC(=O)N3)C1` [Example 120, 7-fluoro-6-((3-((4-fluoro-2-methylphenoxy)methyl)azetidin-1-yl)carbonyl)-2H-1,4-benzoxazin-3(4H)-one], the inhibition at 10 µM is 101%.

With `COc1cc(F)ccc1OCC1CN(C(=O)c2cc3c(cc2F)OCC(=O)N3)C1` [Example 121, 7-fluoro-6-((3-((4-fluoro-2-methoxyphenoxy)methyl)azetidin-1-yl)carbonyl)-2H-1,4-benzoxazin-3(4H)-one], the inhibition at 10 µM came out at 99%.

In the case of `O=C1COc2cc(F)c(C(=O)N3CC(COc4c(Cl)cccc4Cl)C3)cc2N1` [Example 122, 6-((3-((2,6-dichlorophenoxy)methyl)azetidin-1-yl)carbonyl)-7-fluoro-2H-1,4-benzoxazin-3(4H)-one], the inhibition at 10 µM is 102%.

Take `O=C1COc2cc(F)c(C(=O)N3CC(COc4cccc(Cl)c4Cl)C3)cc2N1` [Example 123, 6-((3-((2,3-dichlorophenoxy)methyl)azetidin-1-yl)carbonyl)-7-fluoro-2H-1,4-benzoxazin-3(4H)-one]: the inhibition at 10 µM stood at 102%.

For the compound `O=C1COc2cc(F)c(C(=O)N3CC(COc4ccc(Cl)c(Cl)c4)C3)cc2N1` [Example 124, 6-((3-((3,4-dichlorophenoxy)methyl)azetidin-1-yl)carbonyl)-7-fluoro-2H-1,4-benzoxazin-3(4H)-one], the inhibition at 10 µM turned out to be 100%.

`O=C1COc2cc(F)c(C(=O)N3CC(COc4cc(Cl)ccc4Cl)C3)cc2N1` [Example 125, 6-((3-((2,5-dichlorophenoxy)methyl)azetidin-1-yl)carbonyl)-7-fluoro-2H-1,4-benzoxazin-3(4H)-one]: the inhibition at 10 µM is 98%.

For `O=C1COc2cc(F)c(C(=O)N3CC(COc4ccc(Cl)cc4F)C3)cc2N1` [Example 126, 6-((3-((4-chloro-2-fluorophenoxy)methyl)azetidin-1-yl)carbonyl)-7-fluoro-2H-1,4-benzoxazin-3(4H)-one], the inhibition at 10 µM was 102%.

In the case of `O=C1COc2cc(F)c(C(=O)N3CC(COc4cc(Cl)cc(Cl)c4)C3)cc2N1` [Example 127, 6-((3-((3,5-dichlorophenoxy)methyl)azetidin-1-yl)carbonyl)-7-fluoro-2H-1,4-benzoxazin-3(4H)-one], the inhibition at 10 µM stood at 99%.

Consider `O=C1COc2cc(F)c(C(=O)N3CC(COc4ccc(Oc5ccccc5)cc4)C3)cc2N1` [Example 128, 7-fluoro-6-((3-((4-phenoxyphenoxy)methyl)azetidin-1-yl)carbonyl)-2H-1,4-benzoxazin-3(4H)-one], for which the inhibition at 10 µM worked out at 93%.

For `O=C1COc2cc(F)c(C(=O)N3CC(COc4cccc(Oc5ccccc5)c4)C3)cc2N1` [Example 129, 7-fluoro-6-((3-((3-phenoxyphenoxy)methyl)azetidin-1-yl)carbonyl)-2H-1,4-benzoxazin-3(4H)-one], the inhibition at 10 µM worked out at 99%.

Turning to `O=C1COc2cc(F)c(C(=O)N3CC(COc4ccc(Cl)c(F)c4)C3)cc2N1` [Example 130, 6-((3-((4-chloro-3-fluorophenoxy)methyl)azetidin-1-yl)carbonyl)-7-fluoro-2H-1,4-benzoxazin-3(4H)-one], the inhibition at 10 µM worked out at 103%.

As for `O=C1COc2cc(F)c(C(=O)N3CC(COc4ccc(F)c(Cl)c4)C3)cc2N1` [Example 131, 6-((3-((3-chloro-4-fluorophenoxy)methyl)azetidin-1-yl)carbonyl)-7-fluoro-2H-1,4-benzoxazin-3(4H)-one], the inhibition at 10 µM was 101%.

Turning to `O=C1COc2cc(F)c(C(=O)N3CC(COc4cc(F)ccc4Cl)C3)cc2N1` [Example 132, 6-((3-((2-chloro-5-fluorophenoxy)methyl)azetidin-1-yl)carbonyl)-7-fluoro-2H-1,4-benzoxazin-3(4H)-one], the inhibition at 10 µM was 99%.

Regarding `N#Cc1cc(OCC2CN(C(=O)c3cc4c(cc3F)OCC(=O)N4)C2)ccc1Cl` [Example 133, 2-chloro-5-((1-((7-fluoro-3-oxo-3,4-dihydro-2H-1,4-benzoxazin-6-yl)carbonyl)azetidin-3-yl)methoxy)benzonitrile], the inhibition at 10 µM was determined as 98%.

As to `O=C1COc2cc(F)c(C(=O)N3CC(COc4cc(F)cc(Cl)c4)C3)cc2N1` [Example 134, 6-((3-((3-chloro-5-fluorophenoxy)methyl)azetidin-1-yl)carbonyl)-7-fluoro-2H-1,4-benzoxazin-3(4H)-one], the inhibition at 10 µM amounted to 102%.

Take `O=C1COc2cc(F)c(C(=O)N3CC(COc4cccc(Cl)c4F)C3)cc2N1` [Example 135, 6-((3-((3-chloro-2-fluorophenoxy)methyl)azetidin-1-yl)carbonyl)-7-fluoro-2H-1,4-benzoxazin-3(4H)-one]: the inhibition at 10 µM amounted to 101%.

For `O=C1COc2cc(F)c(C(=O)N3CC(COc4c(F)cccc4Cl)C3)cc2N1` [Example 136, 6-((3-((2-chloro-6-fluorophenoxy)methyl)azetidin-1-yl)carbonyl)-7-fluoro-2H-1,4-benzoxazin-3(4H)-one], the inhibition at 10 µM was 98%.

As to `N#Cc1ccc(Cl)cc1OCC1CN(C(=O)c2cc3c(cc2F)OCC(=O)N3)C1` [Example 137, 4-chloro-2-((1-((7-fluoro-3-oxo-3,4-dihydro-2H-1,4-benzoxazin-6-yl)carbonyl)azetidin-3-yl)methoxy)benzonitrile], the inhibition at 10 µM worked out at 99%.

In the case of `N#Cc1ccc(OCC2CN(C(=O)c3cc4c(cc3F)OCC(=O)N4)C2)cc1Cl` [Example 138, 2-chloro-4-((1-((7-fluoro-3-oxo-3,4-dihydro-2H-1,4-benzoxazin-6-yl)carbonyl)azetidin-3-yl)methoxy)benzonitrile], the inhibition at 10 µM was 100%.

As for `O=C1COc2cc(F)c(C(=O)N3CC(COc4cccc5nccnc45)C3)cc2N1` [Example 139, 7-fluoro-6-((3-((quinoxalin-5-yloxy)methyl)azetidin-1-yl)carbonyl)-2H-1,4-benzoxazin-3(4H)-one], the inhibition at 10 µM stood at 92%.

Consider `O=C1COc2cc(F)c(C(=O)N3CC(COc4ccccc4)C3)cc2N1` [Example 140, 7-fluoro-6-((3-(phenoxymethyl)azetidin-1-yl)carbonyl)-2H-1,4-benzoxazin-3(4H)-one], for which the inhibition at 10 µM came to 100%.

As to `Cc1ccc(OCC2CN(C(=O)c3cc4c(cc3F)OCC(=O)N4)C2)c(C)n1` [Example 141, 6-((3-(((2,6-dimethylpyridin-3-yl)oxy)methyl)azetidin-1-yl)carbonyl)-7-fluoro-2H-1,4-benzoxazin-3(4H)-one], the inhibition at 10 µM is 102%.
